# Test results as given in patent US7993824B2, “Compositions and methods for determining the susceptibility of a pathogenic virus to protease inhibitors” (Monogram Biosciences, Inc., priority 2002, dated 2011).
# What was measured:
# HIV = conditions: patients using amprenavir as their first PI; as low as; cited from earlier work
# [1] = system: HIV-1 clones containing I50V; assay: PhenoSense assay on protease clones (I50V; I50V+L90M; I50V+N88S) isolated from resistance test vector pools of one patient sample; format: cell-based; conditions: for mean fold change (FC), reduction in susceptibility: clones with I50V only, or I50V plus L90M
# Excerpt: Drug names are abbreviated as follows: APV, amprenavir; IDV, indinavir; LPV, lopinavir; NFV, nelfinavir; RTV, ritonavir; SQV, saquinavir; ATV, atazanavir (BMS 232632).
# (§1) A resistance test vector (“RTV”) can then be constructed by incorporating the amplified viral gene sequences into a replication defective viral vector by using any method known in the art of incorporating gene sequences into a vector. In one embodiment, restrictions enzymes and conventional cloning methods are used. See Sambrook et al., 2001, Molecular Cloning: A Laboratory Manual, Cold Spring Harbor Laboratory, 3rd ed., NY; and Ausubel et al., 1989, Current Protocols in Molecular Biology, Greene Publishing Associates and Wiley Interscience, NY. In a preferred embodiment, ApaI and PinAI restriction enzymes are used. Preferably, the replication defective viral vector is the indicator gene viral vector (“IGVV”). In a preferred embodiment, the viral vector contains a means for detecting replication of the RTV. Preferably, the viral vector contains a luciferase expression cassette.
# (§2) The assay can be performed by first co-transfecting host cells with RTV DNA and a plasmid that expresses the envelope proteins of another retrovirus, for example, amphotropic murine leukemia virus (MLV). Following transfection, virus particles can be harvested and used to infect fresh target cells. The completion of a single round of viral replication can be detected by the means for detecting replication contained in the vector. In a preferred embodiment, the completion of a single round of viral replication results in the production of luciferase. Serial concentrations of anti-viral agents can be added at either the transfection step or the infection step.
# (§3) Susceptibility to the anti-viral agent can be measured by comparing the replication of the vector in the presence and absence of the anti-viral agent. For example, susceptibility to the anti-viral agent can be measured by comparing the luciferase activity in the presence and absence of the anti-viral agent. Susceptible viruses would produce low levels of luciferase activity in the presence of antiviral agents, whereas viruses with reduced susceptibility would produce higher levels of luciferase activity.
# Clones from the population were selected so as to isolate some clones with the N88S mutation and some without it. Resistance test vector pools constructed from the original plasma sample (Petropoulos et al., 2000, Antimicrob Agents Chemother 44:920-8) were transformed into E. Coli, and plasmid DNA from individual colonies was screened in the PhenoSense® assay for […].
# [2] = system: HIV-1 from the patient sample; assay: PHENOSENSE HIV phenotypic susceptibility assay on patient plasma samples (IC50 fold change vs NL4-3 reference); format: cell-based; conditions: for fold change in IC50: patient sample with L10I, I13V, E35D, M36I, R41K, I50V, L63P, A71V, N88N/S, L90M in HIV protease, vs NL4-3 reference
# Description: In a preferred embodiment, the phenotypic analysis is performed using PHENOSENSE™ (ViroLogic Inc., South San Francisco, Calif.). See Petropoulos et al., 2000, Antimicrob. Agents Chemother. 44:920-928; U.S. Pat. Nos. 5,837,464 and 6,242,187. PHENOSENSE™ is a phenotypic assay that achieves the benefits of phenotypic testing and overcomes the drawbacks of previous assays. Because the assay has been automated, PHENOSENSE™ offers higher throughput under controlled conditions. The result is an assay that accurately defines the susceptibility profile of a patient's HIV isolates to all currently available antiretroviral drugs, and delivers results directly to the physician within about 10 to about 15 days of sample receipt. PHENOSENSE™ is accurate and can obtain results with only one round of viral replication, thereby avoiding selection of subpopulations of virus. The results are quantitative, measuring varying degrees of drug susceptibility, and sensitive—the test can be performed on blood specimens with a viral load of about 500 copies/mL and can detect minority populations of some drug-resistant virus at concentrations of 10% or less of total viral population. Furthermore, the results are reproducible and can vary by less than about 1.4-2.5 fold, depending on the drug, in about 95% of the assays performed.
# PHENOSENSE™ can be used with nucleic acids from amplified viral gene sequences. As discussed in Section 5.4.1, the sample containing the virus may be a sample from a human or an animal infected with the virus or a sample from a culture of viral cells. In one embodiment, the viral sample comprises a genetically modified laboratory strain.
# as §1, §2, §3
# The phenotypic assay was conducted using the PHENOSENSE™ (Virologic, South San Francisco, Calif.) HIV assay (Petropoulos et al., 2000, Antimicrob. Agents Chemother. 44:920-928; U.S. Pat. Nos. 5,837,464 and 6,242,187). […]
# [3] = I50V+N88S clones vs I50V clones
SMILES,"mean fold change (FC), reduction in susceptibility [1]",fold change in IC50 [2] [fold],other results
CC(C)CN(C[C@@H](O)[C@H](Cc1ccccc1)NC(=O)O[C@H]1CCOC1)S(=O)(=O)c1ccc(N)cc1 [amprenavir],13-17 FC,4.1,"reductions in susceptibility in patients who experienced viral load rebound (HIV): 2-3 fold; fold change for a virus containing I50V, but not N88S ([1]; FIG. 7 bar 1 for APV): about 17 fold; fold change when the virus contained N88S in addition to I50V ([1]; FIG. 7 bar 2 for APV, wild type level): 1.2 FC; factor by which susceptibility was increased when N88S was present in combination with I50V [1, 3]: 14.5; 99th percentile for the distribution of FC in genotypically wild-type viruses ([2]; genotypically wild-type viruses, PhenoSense Assay): 2.1 fold"
COC(=O)N[C@H](C(=O)N[C@@H](Cc1ccccc1)[C@@H](O)CN(Cc1ccc(-c2ccccn2)cc1)NC(=O)[C@@H](NC(=O)OC)C(C)(C)C)C(C)(C)C [atazanavir],–,–,"fold increase in IC50 in the presence of N88S (susceptibility decreased) [1, 3]: 2.3 fold"
CC(C)(C)NC(=O)[C@@H]1CN(Cc2cccnc2)CCN1C[C@@H](O)C[C@@H](Cc1ccccc1)C(=O)N[C@H]1c2ccccc2C[C@H]1O [indinavir],–,1.4,–
Cc1cccc(C)c1OCC(=O)N[C@@H](Cc1ccccc1)[C@@H](O)C[C@H](Cc1ccccc1)NC(=O)[C@H](C(C)C)N1CCCNC1=O [lopinavir],7-9 FC,3.3,"fold decrease in IC50 in the presence of N88S (susceptibility increased) [1, 3]: 1.7 fold"
Cc1c(O)cccc1C(=O)N[C@@H](CSc1ccccc1)[C@H](O)CN1C[C@H]2CCCC[C@H]2C[C@H]1C(=O)NC(C)(C)C [nelfinavir],7-10 FC,5.3,"fold increase in IC50 in the presence of N88S (susceptibility decreased) [1, 3]: 2.1 fold"
CC(C)c1nc(CN(C)C(=O)N[C@H](C(=O)N[C@@H](Cc2ccccc2)C[C@H](O)[C@H](Cc2ccccc2)NC(=O)OCc2cncs2)C(C)C)cs1 [ritonavir],12-20 FC,11,"fold decrease in IC50 in the presence of N88S (susceptibility increased) [1, 3]: 1.4 fold"
CC(C)(C)NC(=O)[C@@H]1C[C@@H]2CCCC[C@@H]2CN1C[C@@H](O)[C@H](Cc1ccccc1)NC(=O)[C@H](CC(N)=O)NC(=O)c1ccc2ccccc2n1 [saquinavir],–,3.6,increase in FC with L90M ([1]; I50V plus L90M clones vs I50V only clones): 1.8 fold
